The record followed here is ChEMBL document CHEMBL1146420, “Isolation and characterization of 1,3-dimethylisoguanine from the Bermudian sponge Amphimedon viridis” (J Nat Prod, 1997).

Converted amounts (≈) assume the structure as drawn.

The assay can be described thus: Cytotoxicity against human ovarian cancer cells. In kind it is functional, cell-based. Particulars: Cancer cell lines.

`Cn1c(=N)c2nc[nH]c2n(C)c1=O`: the IC50 (as a rule, the concentration at which inhibition is half-maximal) turned out to be 2.1 µg/mL (≈ 11.7 µM).
